pEC50, pIC50: −log10 of the molar value. “And” between values parts separate entries of the source, which are not always exact repeats. Equal values may be shown once. The source made the active and inactive calls.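 Rule for the calls: active = compounds giving half or more protection of infected cells from virus-caused growth loss, again on retest; inactive = the rest.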 Where a SMILES comes first, the peptide text is derived from it.
Tested on: CEM cells HIV-1 protection, formazan growth assay
Test: NCI AIDS Antiviral Assay
Details: for pIC50: measured here: growth of uninfected CEM cells
Summary of the method: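 Protection of CEM cells against HIV-1 was scored from cell growth (soluble formazan) across five concentrations, with parallel uninfected cells. Lack of protection may reflect toxicity.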

Row | Structure (SMILES) | pEC50 | pIC50 | outcome
1 | CCOP(=O)(CC(=O)c1ccccc1)OCC | < 3.01 | < 3.01 | –
2 | CCOc1ccccc1NC(=O)C(=O)C(/C(=N/N)C(=O)OC)c1nc2ccc([N+](=O)[O-])cc2[nH]c1=O (stereo not given) | < 3.58 | < 3.58 | –
3 | CC1=CCC(O)C=CC(C)C(O)C(C)C=C(C)C(=O)c2c(O)c(C)cc3c2C(=O)C(N)=C(NC(=O)/C=C\C=C/C=CC(C)C(O)CC1=O)C3=O (stereo not given) | < 3.74 | 4.01 | –
4 | [N-]=[N+]=NC1=C(N=[N+]=[N-])c2cccc3cccc(c23)C1=O | – | – | inactive
5 | COc1cc(CNC2=NCCC2)cc(OC)c1OC | < 3.70 | 4.32 | –
6 | COC1(C)OC23C(=O)N(C)C(=O)N(C)C2(O1)N(C(C)=O)C(=O)N3C (stereo not given) | < 3.70 | < 3.70 | –
7 | [N-]=[N+]=NC1OC(=O)C(Cl)=C1N=P(c1ccccc1)(c1ccccc1)c1ccccc1 (stereo not given) | < 4.16 | 5.10 | –
8 | CC(C)(C)c1ccc(-c2nc3ccc([N+](=O)[O-])cc3c(=O)o2)cc1 | < 3.70 | 5.05 | –
9 | O=C1CCCC(=O)N2c3ccc(cc3)CSCCSCc3ccc(cc3)N12 | – | – | inactive
10 | CC(=O)[O-].CC(=O)[O-].O=C(N/N=C/c1cc(Cl)cc(Cl)c1O)c1ccncc1.[Ni+2] | – | – | inactive
11 | COc1ccc(C2SC(N)=Nc3c2c(C)nn3C(=O)Cc2ccccc2)cc1 (stereo not given) | 4.04 | 3.45 | –
12 | O=c1[nH]c(=O)n(C2CC(O)C(CO)O2)cc1S (stereo not given) | – | – | inactive
13 | COC(=O)c1c2c(cc3c1CC1(Cc4cc5c(cc4C1)CCC5)C3)CCC2 | < 3.70 | < 3.70 | –
14 | Cc1ccccc1C1=[N+]([O-])c2ccccc2C1=O | – | – | inactive
15 | O=C(/C(N=Nc1ccccc1)=C(\O)c1ccccc1)c1ccccc1 | < 4.66 | < 4.66 | –
16 | CC(C)(C)c1cc(C2COC(=O)COCCOCC(=O)OCCOCCO2)cc(C(C)(C)C)c1O (stereo not given) | < 3.70 | 3.75 | –
17 | CCC1(O)CCC2C3CC=C4CCCCC4C3CCC21C (stereo not given) | < 3.70 | 4.51 | –
18 | C=CCn1c(=O)c2ccccc2[n+]2c(-c3cccc([N+](=O)[O-])c3)csc12 | < 3.70 | < 3.70 | –
19 | CC1=N[C@](C)(C2CC3C=CC2C3=O)COC1=O (stereo not given in full) | < 3.25 | < 3.25 | –
20 | O=C1N[C@@H]([C@H]2CC[C@H](Cl)CN2)C(=O)N[C@H]1[C@H]1CC[C@H](Cl)CN1 | < 5.23 | 7.85 | –
21 | CC(C)/C(Cl)=N/OC(=O)Nc1ccc(OC(F)(F)F)cc1 | < 3.70 | 4.98 | –
22 | O=c1oc2ccccc2c(O)c1C(c1ccc(-c2ccccc2)cc1)c1c(O)c2ccccc2oc1=O | < 3.70 | 4.45 | –

Row | Structure (SMILES) | pEC50 | pIC50 | outcome
23 | Nc1cc(C(=O)Nc2ccc(C3=NCCN3)cc2)cc(C(=O)Nc2ccc(C3=NCCN3)cc2)c1 | 4.79 | 3.84 | –
24 | CNC(=O)CCCNC(=O)CCCC(=O)OC | < 3.70 | < 3.70 | –
25 | Cc1cc(C)nc(NS(=O)(=O)c2ccc(Nc3c4ccccc4nc4c(C(=O)NCCO)cccc34)cc2)n1 | < 3.70 | 5.11 | –
26 | C=C(C)[C@H]1CC[C@@]2(C)C(C1)[C@H](C)CC[C@@H]2O (stereo not given in full) | – | – | inactive
27 | CCN(CCCc1ccccc1)CCCc1ccccc1 | < 3.70 | 3.98 | –
28 | COc1ccc(N=CN(C)C)c(C)c1 | < 3.70 | 5.40 | –
29 | COC1=CCC2=C(CC[C@H]3[C@H]2CCP3(C)=S)C1 (stereo not given in full) | – | – | inactive
30 | CCN1C[C@]2(CO)CCC(O)C34[C@@H]5C[C@@H]6C(OC(C)=O)[C@@H]5[C@](OC(C)=O)(C[C@@H]6OC)[C@@H](C(OC)[C@@H]32)[C@H]14 (stereo not given in full) | – | – | inactive
31 | Nc1ccc(-c2nc3ccc(Cc4ccc5nc(-c6ccc(N)cc6)oc5c4)cc3o2)cc1 | 3.97 | < 3.70 | –
32 | COc1cc(/C=C(\C#N)C(=O)c2ccccc2)ccc1OCc1ccccc1 | < 4.71 | < 4.71 | –
33 | CN(C)CCOC1(Cc2ccc(F)cc2)CCC(C(C)(C)C)CC1 (stereo not given) | < 3.70 | 5.41 and 5.40 | –
34 | COc1cc(OC)c2nc(C)c3c(c2c1)SCC3 | < 3.70 | < 3.70 | –
35 | O=C1COC(C(=O)c2ccccc2)C(=O)N1 (stereo not given) | < 3.93 | < 3.93 | –
36 | COC(=O)CCC(=O)c1ccc2c(c1)CC1(Cc3ccccc3C1)C2 | < 3.70 | 4.33 | –
37 | C=CCn1c(=O)c(-c2ccccc2)c(O)c2ccccc21 | < 3.70 | < 3.70 | –
38 | O=C(Nc1ccc(O)cc1)C(Cl)(Cl)Cl | < 3.70 | 4.40 | –
39 | Cn1cc(C(=O)c2ccccc2)c2ccccc2c1=O | – | – | inactive
40 | CCCCOC(=O)c1cc(C(=CCC[C@H]2CC[C@@]3(C)[C@@H](CC[C@@H]4[C@@H]3CC[C@]3(C)[C@@H](C(C)CCCC(C)C)CC[C@@H]43)C2)c2cc(Cl)c(O)c(C(=O)OCCCC)c2)cc(Cl)c1O (stereo not given in full) | < 4.00 | < 4.00 | –
41 | CC(NC(=O)CNC(=O)C(N)CO)C(=O)NC(CCC(=O)O)C(=O)NC(CCCCN)C(=O)NC(C(=O)NC(CCC(N)=O)C(=O)NC(CCC(=O)O)C(=O)NC(CCC(N)=O)C(=O)NC(CCCN=C(N)N)C(=O)NC(C)C(=O)NC(CC(N)=O)C(=O)NC(C)C(=O)NC(Cc1cnc[nH]1)C(=O)NC(CO)C(=O)O)C(C)O (stereo not given) (H-SGAEKTQEQRANAHS-OH; configuration not given here) | < 4.00 | < 4.00 | –
42 | O=C1NC(Cc2ccc(O)c(O)c2)C(=O)N2CCCC12 (stereo not given) | < 3.70 | < 3.70 | –
43 | O=C1CCCC/C1=C/c1ccccc1 | < 3.70 | 4.89 | –
44 | COc1ccc(/C=C(/C(C)=O)c2ccccc2)cc1 | < 4.13 | < 4.13 | –

Row | Structure (SMILES) | pEC50 | pIC50 | outcome
45 | Cc1sc2nc3n(c(=O)c2c1C)N=C(c1ccc([N+](=O)[O-])cc1)CS3 | < 3.70 | < 3.70 | –
46 | CN(C)c1nc(N(C)C)nc(N(C)C23CC4CC(CC(C4)C2)C3)n1 | < 3.70 | 4.19 | –
47 | CCCn1c(=O)c2ccccc2[n+]2c(-c3ccc([N+](=O)[O-])cc3)csc12 | < 3.70 | < 4.00 | –
48 | CCOC(=O)C(=O)NC12CC3CC(CC(C3)C1)C2 | < 3.14 | < 3.14 | –
49 | COC(=O)C(C)S(=O)(=O)O (stereo not given) | < 3.70 | < 3.70 | –
50 | CC1=C(C)C(=O)C(C2=CC(=O)c3ccccc3C2=O)=C(C2=CC(=O)c3ccccc3C2=O)C1=O | < 3.70 | 5.47 | –
51 | CC(=O)c1ccc(NC(=O)C(=O)C(C(=O)c2ccc(Cl)c(Cl)c2)C2OC(=O)c3ccccc32)cc1 (stereo not given) | < 4.06 | 4.90 | –
52 | COC(=O)C(Cc1c(C2Nc3ccccc3C2CC(NC(C)=O)C(=O)OC)[nH]c2ccccc12)NC(C)=O (stereo not given) | < 3.70 | < 3.70 | –
53 | Cn1c(=O)c(=O)n(C)c2cc(Cl)c(Cl)cc21 | < 3.70 | < 3.70 | –
54 | CC(=O)C(=Cc1ccc(Br)cc1)C(C)=O | < 4.29 | 4.56 | –
55 | NC(=O)/C=C/c1c[nH]c2nccnc12 | < 3.72 | 6.01 | –
56 | CC1=C(C(=O)OC2CC3CCC2(C)C3(C)C)C2Nc3ccccc3N(C)C2O1 (stereo not given) | < 3.70 | 5.19 | –
57 | O=C(O)CCCCCCCCCc1ccccc1 | < 3.70 | 3.97 | –
58 | COc1cc(C2c3cc4c(cc3C(O)C3CCC(=O)N23)OCO4)cc(OC)c1OC (stereo not given) | < 3.70 | 4.73 | –
59 | COc1cc2c(cc1OC)CC(N=[N+]=[N-])c1cc(OC)c(OC)cc1/C=C\2 (stereo not given) | < 3.70 | 4.15 | –
60 | Sc1ccccc1C1N(Cc2ccc(Cl)cc2)CCCN1Cc1ccc(Cl)cc1 | < 4.00 | 5.24 | –
61 | CCc1ccc(Nc2cc(=O)n(C)c(SCc3ccccc3)n2)cc1 | < 3.70 | < 3.70 | –
62 | CCCCCC(=O)OC1(C(C)=O)CCC2C3CCC4=CC(=O)CCC4C3CCC21C (stereo not given) | < 3.70 | 4.84 | –
63 | Cc1ccc(-n2[nH]nc(C(N)=O)c2=O)cc1 | < 3.70 | < 3.70 | –
64 | C[CH2][Sn]([CH2]C)([O]C(=O)c1c(F)cccc1F)[O][Sn]([CH2]C)([CH2]C)[O]C(=O)c1c(F)cccc1F | < 4.14 | 5.32 | –
65 | CCCCCCCCCCCCCCCCCCN(C)C | < 3.70 | 4.01 | –
66 | COC(=O)C1=CC(=O)OC1(OO)c1ccccc1 (stereo not given) | < 3.70 | 4.34 | –

Row | Structure (SMILES) | pEC50 | pIC50 | outcome
67 | CN(C)/C=N/c1nc2ncn(CCOC(=O)c3ccccc3)c2c(=O)[nH]1 | < 3.15 | < 3.15 | –
68 | O=C1C(=Cc2ccco2)C(=O)C2CCCCC12 (stereo not given) | < 3.70 | 3.78 | –
69 | CC(=O)Oc1cc(-c2oc3cc(OC(C)=O)c(C4OC(CO)C(O)C(O)C4O)c(OC(C)=O)c3c(=O)c2O)c(OC(C)=O)cc1O (stereo not given) | < 3.70 | < 3.70 | –
70 | Cc1cc(C)nc(Nc2nc3ccc([N+](=O)[O-])cc3[nH]2)n1 | < 3.06 | 3.39 | –
71 | COC1=C2C[C@](OC)(C#CC=CC#CC2O)CC1(C)C (stereo not given in full) | < 3.70 | 4.01 | –
72 | COc1ccccc1-n1c(N)c2c(C)c(-c3ccccc3)[nH]c2nc1=S | < 3.70 | 4.42 | –
73 | O=C1NC(=O)C(=Cc2ccccc2F)C(=O)N1 | < 2.97 | < 2.97 | –
74 | C#Cc1cccc(NC(=O)/C=C\C(=O)O)c1 | < 3.08 | 3.27 | –
75 | CC1(C)COC2(OC1)C1=NS(=O)(=O)CC13CCC2C3(C)C (stereo not given) | < 4.24 | < 4.24 | –
76 | O=C1C=C(Nc2ccccc2C(=O)CC(=O)C(=O)Nc2cccc([N+](=O)[O-])c2)c2ccccc2C1=O | < 4.68 | 4.81 | –
77 | Cc1ccc(C2OC(=O)c3c2ccc2ccccc32)cc1 (stereo not given) | < 4.45 | < 4.45 | –
78 | O[C@H]1[C@@H](O)C2(C[C@@H]1Br)OC(COCc1ccccc1)[C@@H](COCc1ccccc1)O2 (stereo not given in full) | – | – | inactive
79 | CN1C(=O)C2CC(=O)N(Cc3ccccc3)C(=O)C2C1=O (stereo not given) | < 3.54 | < 3.54 | –
80 | O=C(/C=C/c1ccc(O)c(O)c1O)OCCc1ccccc1 | < 3.70 | 5.63 | –
81 | Cc1nc2sccn2c1C(=O)NNC(N)=S | < 3.43 | < 3.43 | –
82 | NNc1[nH]c(=S)[nH]c1C(N)=O | < 3.70 | < 3.70 | –
83 | CCNC(=O)Nc1ccc(Cl)cn1 | < 3.70 | 3.88 | –
84 | CCOc1cc2c(c(OCC)c1O)CC[C@@H]1[C@@H]2CC[C@]2(C)[C@@H](O)CC[C@@H]12 | < 5.70 | 6.11 | –
85 | Nc1nc2ncn(O)c2c(=O)[nH]1 | < 3.95 | 6.46 | –

Reference: PubChem BioAssay AID179 (DTP/NCI, 2004)
